Here are results for ten molecules from patent publication US6967254B2, “Substituted heterocyclic compounds and methods of use” (Amgen Inc., priority 2002, dated 2005).

The structures appear in SMILES notation.

The test has as its system LPS induced TNF release, THP1 cells. Description: Lipopolysaccharide-Activated THP1 Cell TNF Production Assay (LPS induced TNF release). Type of test: cell-based. Particulars: Homo sapiens, THP-1, bacterial LPS, 3 h at 37° C., secreted TNF-α read by ECL. As to the method:
Lipopolysaccharide-Activated THP1 Cell TNF Production Assay
THP1 cells are resuspended in fresh THP1 media (RPMI 1640, 10% heat-inactivated FBS, 1×PGS, 1×NEAA, plus 30 μM βME) at a concentration of 1E6/mL. One hundred microliters of cells per well are plated in a polystyrene 96-well tissue culture. One microgram per mL of bacterial LPS is prepared in THP1 media and is transferred to the wells. Test compounds are dissolved in 100% DMSO and are serially diluted 3 fold in a polypropylene 96-well microtiter plate (drug plate). HI control and LO control wells contain only DMSO. One microliter of test compound from the drug plate followed by 10 μL of LPS are transferred to the cell plate. The treated cells are induced to synthesize and secrete TNF-α at 37° C. for 3 h. Forty microliters of conditioned media are transferred to a 96-well polypropylene plate containing 110 μL of ECL buffer (50 mM Tris-HCl pH 8.0, 100 mM NaCl, 0.05% Tween 20, 0.05% NaN3 and 1% FBS) supplemented with 0.44 nM MAB610 monoclonal Ab (R&D Systems), 0.34 nM ruthenylated AF210NA polyclonal Ab (R&D Systems) and 44 μg/mL sheep anti-mouse M280 Dynabeads (Dynal). After a 2 h incubation at room temperature with shaking, the reaction is read on the ECL M8 Instrument (IGEN Inc.). A low voltage is applied to the ruthenylated TNF-α: immune complexes, which in the presence of TPA (the active component in Origlo), results in a cyclical redox reaction generating light at […]. The amount of secreted TNF-α in the presence of compound compared with that in the presence of DMSO vehicle alone (HI control) is calculated using the formula: % control (POC)=(cpd−average LO)/(average HI−average LO)*100. Data (consisting of POC and inhibitor concentration in AM) is fitted to a 4-parameter equation (y=A+((B−A)/(1+((x/C)^D))), where A is the minimum y (POC) value, B is the maximum y (POC), C is the x (cpd concentration) at the point of inflection and D is the slope factor) using a Levenburg-Marquardt non-linear regression algorithm.

Broadly, the IC50 is the midpoint of a concentration-inhibition curve. The low end stands for higher potency, the high end for lower potency. The molecule `CC(C)n1c(-c2ccncc2)c(-c2ccc(Cl)c(Cl)c2)c(=O)n1C` [Example 17, 4-(3,4-Dichloro-phenyl)-1-isopropyl-2-methyl-5-pyridin-4-yl-1,2-dihydro-pyrazol-3-one] showed an IC50 not above 20 µM.

`CC(C)N1CCC(n2[nH]c(=O)c(-c3ccc(Cl)cc3)c2-c2ccncc2)CC1` [Example 12, 4-(4-Chlorophenyl)-1-(1-isopropyl-piperidin-4-yl)-5-pyridin-4-yl-1,2-dihydro-pyrazol-3-one] came in with an IC50 not above 20 µM.

Regarding `NC1CCC(n2[nH]c(=O)c(-c3ccc(Cl)cc3)c2-c2ccncc2)CC1` (stereo not shown) [Example 20, 1-(4-Aminocyclohexyl)-4-(4-chlorophenyl)-5-pyridin-4-yl-1,2-dihydropyrazol-3-one], the IC50 is not above 20 µM.

`CN1CCC(n2[nH]c(=O)c(-c3ccc(Cl)cc3)c2-c2ccncc2)CC1` [Example 10, 4-(4-Chlorophenyl)-1-(1-methyl-piperidin-4-yl)-5-pyridin-4-yl-1,2-dihydro-pyrazol-3-one]: the IC50 was not above 20 µM.

Molecule `O=c1[nH][nH]c(-c2ccncc2)c1-c1ccc(Cl)c(Cl)c1` [Example 15, 4-(3,4-Dichloro-phenyl)-5-pyridin-4-yl-1,2-dihydro-pyrazol-3-one] yielded an IC50 not above 20 µM.

Turning to `Cn1c(=O)c(-c2ccc(Cl)c(Cl)c2)c(-c2ccncc2)n1CC1CCCCC1` [Example 19, 1-Cyclohexylmethyl-4-(3,4-dichloro-phenyl)-2-methyl-5-pyridin-4-yl-1,2-dihydro-pyrazol-3-one], the IC50 was not above 20 µM.

The molecule `CC(C)n1[nH]c(=O)c(-c2ccc(Cl)c(Cl)c2)c1-c1ccncc1` [Example 16, 4-(3,4-Dichloro-phenyl)-1-isopropyl-5-pyridin-4-yl-1,2-dihydro-pyrazol-3-one] gave an IC50 not above 20 µM.

`O=c1[nH]n(C2CCCNC2)c(-c2ccncc2)c1-c1ccc(Cl)cc1` (stereo not shown) [Example 6, 4-(4-Chloro-phenyl)-1-piperidin-3-yl-5-pyridin-4-yl-1,2-dihydro-pyrazol-3-one] came in with an IC50 not above 20 µM.

Molecule `O=c1[nH]n(C2CCNCC2)c(-c2ccncc2)c1-c1ccc(Cl)cc1` [Example 5, 4-(4-Chloro-phenyl)-1-piperidin-4-yl-5-pyridin-4-yl-1,2-dihydro-pyrazol-3-one] registered an IC50 not above 20 µM.

As to `CN1CCCC(n2[nH]c(=O)c(-c3ccc(Cl)cc3)c2-c2ccncc2)C1` (stereo not shown) [Example 11, 4-(4-Chlorophenyl)-1-(1-methyl-piperidin-3-yl)-5-pyridin-4-yl-1,2-dihydro-pyrazol-3-one], the IC50 is not above 20 µM.
